Read-outs that look alike come from different tables or passages of the source.
How the values were obtained:
[1] = Tacrolimus blood levels in healthy human volunteers given capsule; type: in vivo; details: oral
Description: (§1) A hard gelatine capsule was filled with the following composition:
(§2) One capsule as above containing 0.3 mg tacrolimus was administered daily to healthy human volunteers for three successive days. […] Similarly, no change in TNF-α levels occurred as a result of administering 0.6 mg daily of tacrolimus to healthy volunteers. The average trough level of tacrolimus (level after 24 hours of administration of each dose) observed was approximately 220 pg/ml.

[2] = system: rat microglia; test: Microglial cell culture model of inflammation (LPS challenge); type: cell-based; details: 100 ng/ml LPS overnight
Description: To investigate the effect of tacrolimus on microglial function, rat microglia were isolated as follows. A primary glial co-culture was isolated from P2 Sprague Dawley rat pups. The cells were cultured until confluency and then the microglia were isolated from the confluent glial cells through mechanical shaking. The isolated microglial cells were then subjected to inflammatory challenge by overnight exposure to 100 ng/ml lipopolysaccharide (LPS), in the presence or absence of tacrolimus. Glial cell activity was monitored by determining cell viability (Cell Counting Kit-8), the presence of reactive oxygen species (by quantitative fluorescence measurement in the supernatant/cell lysate), microvesicle shedding (by monitoring vesicle formation in cells loaded with Calcein-AM and then challenged with 1 mM ATP) and inflammatory cytokine production (by qPCR).

[3] = system: TDP-43; test: Motor neuron culture with Aβ1-42 insult: extranuclear TDP-43 accumulation; type: cell-based, rat
Description: Primary motor neuron (MN) cultures generated from rat spinal cord were treated with 20 μM amyloid beta 1-42 peptide (Aβ1-42). […] This model was used to determine the effect of tacrolimus on TDP-43 toxicity in motor neurons. […] After permeabilisation with 0.1% saponin, one group of cells was incubated for 2 hours with a) mouse monoclonal anti-microtubule-associated-protein 2 (MAP-2) antibody, and b) rabbit polyclonal anti-TDP-43 antibody. The anti-MAP-2 antibody was used to determine MN survival (number of stained MN) and MN neurite length. The anti-TDP-43 antibody was used to examine extranuclear TDP-43: the area of extranuclear TDP-43 staining per MN was calculated by normalising to the number of MAP-2 positive cells.

[4] = system: C. elegans expressing YFP alone (Q0) in the body wall muscle; test: C. elegans lifespan assay, YFP alone (Q0) strain; type: in vivo, Caenorhabditis elegans; details: p<0.05 vs. Q0 DMSO
Description: Tacrolimus was tested in a number of disease models using the nematode worm, Caenorhabditis elegans, in which aggregate-prone proteins associated with neurodegenerative diseases are expressed in certain cell types. The effect of tacrolimus was determined by measuring the lifespan of worms in the presence and absence of tacrolimus, using the following general methodology. All of the worms tested using these assays also contained, in addition to the transgene expressing the disease-related protein, a mutation in the bus-5 gene which confers drug-sensitivity.
C. elegans cultures were synchronised by incubating an asynchronous culture in basic sodium hypochlorite solution to kill everything but the bleach-resistant mature eggs. The eggs were added on to agar plates and then allowed to hatch and develop in the presence of the test compound (or vehicle) and bacterial food source. […] From this point on, each ageing population was inspected at regular intervals (e.g. daily) and viability assessed by counting the number of dead worms.
The cumulative number of dead worms for each population was used to generate a survival/viability plot to determine chronological lifespan (CLS). Survival was analysed using the Kaplan-Meier log-rank survival analysis method, using the Online Application for Survival (OASIS; see http://sbi.postech.ac.kr/oasis). […]

[5] = system: α-synuclein and phospho-Tau (p-Tau); test: Immunohistochemistry for α-synuclein and p-Tau in SNc of 6-OHDA-lesioned rats; type: in vivo, rat; details: 1 mg/kg s.c., 3 months; p<0.05 vs. vehicle
Description: After 3 months, 10 randomly selected rats (5 from each group) were terminally anaesthetised. Blood and striatal tissue samples were taken and the posterior brain block containing the SNc was fixed by immersion in 4% paraformaldehyde in 0.1 M phosphate buffer (PB) for 24 hours. Following cryoprotection in 30% sucrose in 0.1M PB for 2-3 days and freezing the blocks in liquid nitrogen, samples were stored at −80° C. for α-synuclein and phospho-Tau (p-Tau) immunohistochemistry (IHC). This was repeated for 11 rats at 6 months (randomly selected from the surviving rats in both groups). Immunohistochemistry for α-synuclein and p-Tau was carried out. Brain samples containing the SNc region were double-immunostained for p-Tau (AT8) and α-synuclein. The number of positive cells for each single stain and the number of double-stained cells was manually counted for 6 sections per animal.

[6] = system: TNF-α; test: Blood TNF-α levels in healthy human volunteers given tacrolimus capsule; type: in vivo
Description: as §1, §2

Q: For `C=CC[C@@H]1/C=C(\C)C[C@H](C)C[C@H](OC)[C@H]2O[C@@](O)(C(=O)C(=O)N3CCCC[C@H]3C(=O)O[C@H](/C(C)=C/[C@@H]3CC[C@@H](O)[C@H](OC)C3)[C@H](C)[C@@H](O)CC1=O)[C@H](C)C[C@@H]2OC` [tacrolimus, Tacrolimus], which average peak level ([1]; 0.3 mg capsule daily, three days) is on record?
A: approximately 3700 pg/mL

Q: What about the concentration at 24 h ([1]; human, blood, two capsules, single dose of 0.6 mg, read-out: expected trough level) of the same compound?
A: ~0.44 ng/mL

Q: And the AUC ([1]; human, blood, 0.3 mg capsule daily, three days, read-out: average area under the curve AUC 0_t)?
A: ~23.5 ng·h/mL

Q: And the concentration at 24 h ([1]; human, blood, 0.3 mg capsule daily, three days, read-out: average trough level (after 24 hours of administration of each dose))?
A: ~0.22 ng/mL

Q: What about the “LPS-induced oxidative stress (reactive oxygen species)” value ([2]; p<0.01 all concentrations, concentration-dependent) of the same compound?
A: significantly reduced

Q: And the “LPS-induced increase in metabolic activity of glial cells” value ([2]; p<0.01 for 100 nM and 1 μM)?
A: reduces this increase in a concentration-dependent manner

Q: What about the LPS-induced microvesicle shedding ([2]; p<0.01 for 1 μM, concentration-dependent) of the same compound?
A: increase is reduced

Q: What about the “increase of TDP-43:MN ratio in response to Aβ1-42 insult relative to unchallenged cells” value ([3]; 100 nM tacrolimus, 24 hours, control cells increased by 191%) of the same compound?
A: 35%

Q: What about the “TDP-43 levels normalised to motor neuron number (TDP-43:MN ratio)” value ([3]; all 3 concentrations, 24 hours after Aβ1-42 insult) of the same compound?
A: significantly reduced TDP-43 levels

Q: And the lifespan [4]?
A: significantly increases lifespan

Q: And the “number of cells staining positively for p-Tau” value [5]?
A: lower counts of positive cells

Q: What about the “number of cells staining positively for α-synuclein” value [5] of the same compound?
A: lower counts of positive cells

Q: And the “blood TNF-α levels” value ([6]; 0.3 mg capsule daily for three successive days)?
A: No significant changes

Q: And the TNF-α levels ([6]; 0.6 mg daily)?
A: no change

Reference: patent US20180085356A1, “METHOD OF TREATING DISEASE CHARACTERISED BY PROTEIN AGGREGATE DEPOSITION IN NEURONAL CELLS” (CHRONOS THERAPEUTICS LIMITED, priority 2013, published 2018)
